Experiments:
WT mice = experiment: Sciatic nerve crush in WT mice with systemic BACE1 inhibitor infusion via Alzet pumps; type: in vivo, mouse
Source text: The inhibitors were systemically administered via subcutaneous catheters from Alzet pumps implanted in the interscapular space for 7 or 15 days.
Mice were deeply anesthetized with isoflurane and left sciatic nerves in the mid thigh or at the sciatic notch level were exposed and crushed by pulling tight a loop of 8-0 nylon black sutures for 30-40 seconds. The crush sites were marked with a 10-0 nylon black suture going through the epineurium only. For sciatic nerve transection, a small ˜2 mm piece of nerve was dissected out and the two nerve stumps were turned away from each other to prevent axonal regeneration to distal stumps. The distal stumps and contralateral nerves were collected 1-15 days post-transection.
Alzet pumps were filled, primed, and implanted as previously described in Farah, J. Neurosci. […] Neurol. […] The latter compound was synthesized by the NeuroTranslational team at the Brain Science Institute at Johns Hopkins University. Both inhibitors were dissolved in DMSO. According to the manufacturer's data, the pump continuously supplied 1-30 μg/hour of inhibitor for 7 days. To minimize the delay between implantation and the onset of release, the filled pumps were incubated in 1×PBS at 37° C. for 4 hours immediately before implantation. The mice were anesthetized by inhalation of isoflurane, and an incision, about 1.5 cm long, was made in the skin on top of the interscapular space. A filled Alzet pump was implanted subcutaneously into each mouse and incisions were closed with 9 mm stainless steel wound clips.
For fluorescent microscopy and immunostaining, mice were deeply anesthetized with 10% chloral hydrate and killed by transcardial perfusion with 1×PBS followed by 2% paraformaldehyde in […] phosphate buffer, pH 7.4, for 10-15 minutes. Tissues were then postfixed in the same fixative for 4-16 hr at 4° C. Sciatic nerves and gastrocnemius muscles were cryoprotected in 30% sucrose in 1×PBS overnight and quickly frozen in cold 2-methylbutane. Tissues were frozen sectioned on a cryostat at thickness of 10 or 20 μm for sciatic nerves and 50 μm for gastrocnemius muscles. In addition, the hind feet were decalcified, cryoprotected in 30% sucrose in 1×PBS, and sectioned at 50 μm thickness. Sciatic nerves were sectioned longitudinally using a Leica cryostat (model CM3050S, Leica Microsystems, Buffalo Grove, Ill.). Gastrocnemius muscles and foot were cross-sectioned by a freezing sliding microtome (Microm HM 450, Thermo Scientific, Waltham, Mass.).
To visualize YFP-positive degenerating and regenerating axons, animals were perfused as described above and sciatic nerves were collected. Whole-mounted sciatic nerves were imaged under a confocal microscope and Z-stack images were collected through the depth of the nerves.
For ultrastructural analyses, nerves were postfixed in OsO4 and embedded in Epon. Cross sections, at 1 μm thickness, were stained for toluidine blue and examined under light microscopy with 100× oil-immersion objective. 70 nm thin sections were obtained and stained for citrate/uranyl acetate. Electron micrographs were acquired using a Hitachi 7600 or Zeiss Libra transmission electron microscope.

WT DRG explants = experiment: Axonal outgrowth of dorsal root ganglia (DRG) explants; settings: 50 nM, 4 days post culture
Experimental: Postnatal (P4-5) primary mouse DRG from WT littermate and BACE1 KO pups were established. Axonal outgrowth at 2 and 4 days post culture were measured.
Postnatal day 4-5 dorsal root ganglia (DRG) were dissected out of WT and BACE1 KO mice, and were maintained in neurobasal medium containing 2% B27 supplement and 50 ng/ml NGF (all reagents from Invitrogen, Carlsbad, Calif.). In some of the WT DRG explants, 50 nM-1 μM BACE1 inhibitor IV was added daily to the media. At least 8 explants were used for each condition. Axonal outgrowth of the DRG was monitored daily under phase-contrast microscopy, and images were acquired with Openlab software at 2 and 4 days post culture. The axon lengths were measured from the borders of the explants borders to the tips of axons using ImageJ (http://rsb.info.nih.gov/ij/).

[1] = Paclitaxel administration, body weight; type: in vivo, mouse; settings: 30 mg/kg intravenously via tail vein, 3 times a week for 2 weeks; WT and BACE1 KO mice
Experimental: Paclitaxel (LC laboratories) was dissolved in 100% ethonal. Equal volumes of paclitaxel solution and cremophor (Sigma-Aldrich, St. Louis, Mo.) were vigorously vortexed for 10 minutes. Ice cold saline (80% of the final volume) was added to freshly made paclitaxel/cremophor solution immediately before injection. 30 mg/kg body weight of paclitaxel in this solution was injected intravenously via tail vein at 3 times a week for 2 weeks.

SMILES: C[C@@H](NC(=O)c1cc(C(=O)N[C@@H](Cc2ccccc2)[C@H](O)CNC2CC2)cc(N(C)S(C)(=O)=O)c1)c1ccccc1 [BACE1 inhibitor IV]
- YFP-positive axonal debris in whole-mounted YFP-WT nerve (WT mice; mouse, in vivo): more fragmented
- post-phagocytic macrophages in electron micrograph of WT nerve (WT mice; mouse, in vivo): More post-phagocytic macrophages
- regenerated YFP-positive axons in whole-mounted YFP-WT nerve (WT mice; mouse, in vivo): numerous regenerated YFP-positive axons
- regenerated axons in electron micrograph of WT nerve (WT mice; mouse, in vivo): more regenerated axons
- increase of axonal outgrowth of WT DRG explants (WT DRG explants): 98.0%

SMILES: CC(=O)O[C@H]1C(=O)[C@@]2(C)[C@H]([C@H](OC(=O)c3ccccc3)[C@]3(O)C[C@H](OC(=O)[C@H](O)[C@@H](NC(=O)c4ccccc4)c4ccccc4)C(C)=C1C3(C)C)[C@]1(OC(C)=O)CO[C@@H]1C[C@@H]2O [Paclitaxel, paclitaxel]
- weight loss [1]: no significant weight loss

SMILES: COc1ccc([C@]2(c3ccc(F)c(-c4cccnc4F)c3)N=C(N)N(C)C2=O)cc1C [WAY 258131]
- β tubulin III staining of intra-plantar nerves of WT foot (WT mice; 2 weeks after sciatic nerve crush and treatment): β tubulin III positive fibers are regenerated axons

Reference: US20130108645A1, “METHODS FOR ENHANCING AXONAL REGENERATION” (THE JOHNS HOPKINS UNIVERSITY, priority 2010, published 2013)
